In patent US20080167290A1, “Combination of a Serotonin Reuptake Inhibitor and Amoxapine” (H. Lundbeck A/S, priority 2003, published 2008):
Where two headings read alike, the source gives them in different places.

Tested on: 5-HT levels in ventral hippocampus
Details: for effects on hippocampal 5-HT levels: amoxapine alone, rat ventral hippocampus microdialysis
Method: Male albino rats of a Wistar-derived strain (285-320 g; Harlan, Zeist, The Netherlands) were used for the experiments. Upon surgery, rats were housed individually in plastic cages (35×35×40 cm), and had free access to food and water. Animals were kept on a 12 h light schedule (light on 7:00 a.m.). The experiments are concordant with the declarations of Helsinki and were approved by the animal care committee of the faculty of mathematics and natural science of the University of Groningen.
Preceding surgery rats were anaesthetised using isoflurane (O2/N2O; 300/300 ml/min). Lidocaine-HCl, 10% (m/v) was used for local anaesthesia.
Rats were allowed to recover for at least 24 h. […] 15 minute microdialysis samples were collected in HPLC vials containing 7.5 μl 0.02 M acetic acid for serotonin analysis.
Twenty-μl microdialysate samples were injected via an autoinjector (CMA/200 refrigerated microsampler, CMA, Sweden) onto a 100×2.0 mm C18 Hypersil 3 μm column (Bester, Amstelveen, the Netherlands) and separated with a mobile phase consisting of 5 g/L di-ammoniumsulfate, 500 mg/L EDTA, 50 mg/L heptane sulphonic acid, 4% methanol v/v, and 30 μl/L of triethylamine, pH 4.65 at a flow of 0.4 ml/min (Shimadzu LC-10 AD). 5-HT was detected amperometrically at a glassy carbon electrode at 500 mV vs Ag/AgCl (Antec Leyden, Leiden, The Netherlands). The detection limit was 0.5 fmol 5-HT per 20 μl sample (signal to noise ratio 3).
Four consecutive microdialysis samples with less then 20% variation were taken as control and set at 100%. […] Treatments were compared versus controls using two way analysis of variance (ANOVA) for repeated measurements, followed by Student Newman Keuls test. […] Level of significance level was set at p<0.05.

Clc1ccc2c(c1)C(N1CCNCC1)=Nc1ccccc1O2 [amoxapine]
effects on hippocampal 5-HT levels (1 μmol/kg s.c., P=0.08): did not induce any significant effects
effects on hippocampal 5-HT levels (10 μmol/kg s.c., P=0.47): did not induce any significant effects
response in the 5-HT microdialysis model (summary statement, dose not stated, compared to the serotonin reuptake inhibitor alone): no significant effect
